Data reported in ChEMBL document CHEMBL4387741, “Optimization of novel reversible Bruton's tyrosine kinase inhibitors identified using Tethering-fragment-based screens” (Bioorg Med Chem, 2019).

How the values were obtained:
[1] = target: Calcium/calmodulin-dependent protein kinase kinase 1 (Homo sapiens) (UniProt Q8N5S9); test: Inhibition of wild-type human partial length CAMKK1 (R65 to E414 residues) expressed in bacterial expression system at 1 uM by Kinomescan method relative to control
[2] = target: Serine/threonine-protein kinase ICK (Homo sapiens) (UniProt Q9UPZ9); test: Inhibition of wild-type human partial length ICK (M1 to P314 residues) expressed in mammalian expression system at 1 uM by Kinomescan method relative to control
[3] = target: Atypical kinase COQ8A, mitochondrial (Homo sapiens) (UniProt Q8NI60); test: Inhibition of wild-type human […] ADCK3 (M280 to Q647 residues) expressed in bacterial expression system at 1 uM by Kinomescan method relative to control
[4] = target: Mitogen-activated protein kinase kinase kinase kinase 1 (Homo sapiens) (UniProt Q92918); test: Inhibition of wild-type human full length HPK1 (M1 to R799 residues) expressed in bacterial expression system at 1 uM by Kinomescan method relative to control
[5] = target: Ephrin type-B receptor 1 (Homo sapiens) (UniProt P54762); test: Inhibition of wild-type human partial length EPHB1 (P589 to T911 residues) expressed in bacterial expression system at 1 uM by Kinomescan method relative to control
[6] = target: SNF-related serine/threonine-protein kinase (Homo sapiens) (UniProt Q9NRH2); test: Inhibition of wild-type human partial length SNRK (M1 to E339 residues) expressed in mammalian expression system at 1 uM by Kinomescan method relative to control
[7] = target: Serine/threonine-protein kinase DCLK3 (Homo sapiens) (UniProt Q9C098); test: Inhibition of wild-type human partial length DCAMKL3 (E140 to V628 residues) expressed in bacterial expression system at 1 uM by Kinomescan method relative to control
[8] = target: Microtubule-associated serine/threonine-protein kinase 1 (Homo sapiens) (UniProt Q9Y2H9); test: Inhibition of wild-type human partial length MAST1 (S346 to V730 residues) expressed in mammalian expression system at 1 uM by Kinomescan method relative to control
[9] = target: Bone morphogenetic protein receptor type-2 (Homo sapiens) (UniProt Q13873); test: Inhibition of wild-type human partial length BMPR2 (R179 to Q526 residues) expressed in mammalian expression system at 1 uM by Kinomescan method relative to control
[10] = tested on: Hepatocyte growth factor receptor (Homo sapiens), P08581 [Y1235D]; test: Inhibition of human partial length MET Y1235D mutant (D1010 to S1367 residues) expressed in bacterial expression system at 1 uM by Kinomescan method relative to control
[11] = target: Serine/threonine-protein kinase N2 (Homo sapiens) (UniProt Q16513); test: Inhibition of wild-type human partial length PKN2 (E634 to C984 residues) expressed in bacterial expression system at 1 uM by Kinomescan method relative to control
[12] = tested on: Receptor-type tyrosine-protein kinase FLT3 (Homo sapiens), P36888 [UNDEFINED MUTATION]; test: Inhibition of human partial length FLT3 ITD mutant expressed in bacterial expression system at 1 uM by Kinomescan method relative to control
[13] = target: Protein kinase C eta type (Homo sapiens) (UniProt P24723); test: Inhibition of wild-type human partial length PRKCH (S324 to P683 residues) expressed in bacterial expression system at 1 uM by Kinomescan method relative to control
[14] = tested on: Mast/stem cell growth factor receptor Kit (Homo sapiens), P10721 [A829P]; test: Inhibition of human partial length KIT A829P mutant (I571 to D952 residues) expressed in mammalian expression system at 1 uM by Kinomescan method relative to control
[15] = Apparent permeability from apical to basolateral side in human Caco2 cells at 5 uM after 120 mins by LC-MS/MS analysis; format: ADME, cell-based; details: Caco-2
[16] = target: Serine/threonine-protein kinase 26 (Homo sapiens) (UniProt Q9P289); test: Inhibition of wild-type human full length MST4 (M1 to P416 residues) expressed in mammalian expression system at 1 uM by Kinomescan method relative to control
[17] = target: Serine/threonine-protein kinase D2 (Homo sapiens) (UniProt Q9BZL6); test: Inhibition of wild-type human partial length PRKD2 (A519 to E838 residues) expressed in bacterial expression system at 10 uM by Kinomescan method relative to control
[18] = tested on: Epidermal growth factor receptor (Homo sapiens), P00533 [T790M]; test: Inhibition of human partial length EGFR T790M mutant (R669 to G1022 residues) expressed in mammalian expression system at 10 uM by Kinomescan method relative to control
[19] = target: Wee1-like protein kinase 2 (Homo sapiens) (UniProt P0C1S8); test: Inhibition of wild-type human partial length WEE2 (M204 to K492 residues) expressed in bacterial expression system at 10 uM by Kinomescan method relative to control
[20] = target: Protein kinase C iota type (Homo sapiens) (UniProt P41743); test: Inhibition of wild-type human partial length PRKCI (H215 to V587 residues) expressed in mammalian expression system at 10 uM by Kinomescan method relative to control
[21] = target: Serine/threonine-protein kinase N1 (Homo sapiens) (UniProt Q16512); test: Inhibition of wild-type human partial length PKN1 (E598 to C948 residues) expressed in bacterial expression system at 10 uM by Kinomescan method relative to control
[22] = target: Proto-oncogene tyrosine-protein kinase ROS (Homo sapiens) (UniProt P08922); test: Inhibition of wild-type human partial length ROS1 (A1921 to N2240 residues) expressed in bacterial expression system at 10 uM by Kinomescan method relative to control
[23] = target: Serine/threonine-protein kinase 32A (Homo sapiens) (UniProt Q8WU08); test: Inhibition of wild-type human full length YANK1 (M1 to L396 residues) expressed in mammalian expression system at 10 uM by Kinomescan method relative to control
[24] = tested on: Tyrosine-protein kinase ABL1 (Homo sapiens), P00519 [H396P]; test: Inhibition of human phosphorylated ABL1 H396P mutant (S229 to K512 residues) expressed in mammalian expression system at 10 uM by Kinomescan method relative to control
[25] = target: Calcium/calmodulin-dependent protein kinase type II subunit gamma (Homo sapiens) (UniProt Q13555); test: Inhibition of wild-type human partial length CAMK2G (R9 to A303 residues) expressed in bacterial expression system at 10 uM by Kinomescan method relative to control
[26] = target: Ephrin type-A receptor 8 (Homo sapiens) (UniProt P29322); test: Inhibition of wild-type human partial length EPHA8 (Q608 to C920 residues) expressed in bacterial expression system at 10 uM by Kinomescan method relative to control
[27] = target: Cyclin-dependent kinase-like 2 (Homo sapiens) (UniProt Q92772); test: Inhibition of wild-type human partial length CDKL2 (M1 to D327 residues) expressed in bacterial expression system at 10 uM by Kinomescan method relative to control

Sequence of Ephrin type-B receptor 1 (Homo sapiens) (P54762 whole entry, the tested form may be a part): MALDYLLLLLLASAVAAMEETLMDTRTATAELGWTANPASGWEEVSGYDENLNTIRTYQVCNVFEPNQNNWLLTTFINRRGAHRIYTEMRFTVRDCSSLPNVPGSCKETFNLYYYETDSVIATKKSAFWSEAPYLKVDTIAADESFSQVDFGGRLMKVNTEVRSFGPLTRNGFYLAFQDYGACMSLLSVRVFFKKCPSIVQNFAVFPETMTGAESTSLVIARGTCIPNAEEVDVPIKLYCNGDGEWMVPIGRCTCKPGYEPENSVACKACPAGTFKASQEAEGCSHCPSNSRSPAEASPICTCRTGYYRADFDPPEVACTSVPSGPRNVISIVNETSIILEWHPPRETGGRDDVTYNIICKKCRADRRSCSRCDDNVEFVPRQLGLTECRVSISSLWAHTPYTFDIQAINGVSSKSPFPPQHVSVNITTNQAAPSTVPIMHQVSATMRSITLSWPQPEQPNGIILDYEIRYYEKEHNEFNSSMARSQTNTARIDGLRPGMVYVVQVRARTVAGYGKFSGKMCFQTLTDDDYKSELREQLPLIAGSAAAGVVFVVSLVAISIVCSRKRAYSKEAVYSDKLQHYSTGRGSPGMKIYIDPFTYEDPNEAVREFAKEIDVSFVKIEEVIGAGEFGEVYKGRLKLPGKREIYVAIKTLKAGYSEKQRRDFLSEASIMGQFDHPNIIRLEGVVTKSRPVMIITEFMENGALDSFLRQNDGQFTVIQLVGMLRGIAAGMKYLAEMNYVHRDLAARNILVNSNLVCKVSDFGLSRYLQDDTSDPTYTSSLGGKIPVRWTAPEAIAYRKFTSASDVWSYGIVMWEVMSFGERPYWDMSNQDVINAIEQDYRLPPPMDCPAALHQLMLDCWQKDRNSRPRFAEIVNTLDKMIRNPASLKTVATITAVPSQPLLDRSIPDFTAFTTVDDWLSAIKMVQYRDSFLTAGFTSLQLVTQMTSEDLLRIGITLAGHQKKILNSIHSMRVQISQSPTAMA
Sequence of Calcium/calmodulin-dependent protein kinase type II subunit gamma (Homo sapiens) (Q13555 whole entry, the tested form may be a part): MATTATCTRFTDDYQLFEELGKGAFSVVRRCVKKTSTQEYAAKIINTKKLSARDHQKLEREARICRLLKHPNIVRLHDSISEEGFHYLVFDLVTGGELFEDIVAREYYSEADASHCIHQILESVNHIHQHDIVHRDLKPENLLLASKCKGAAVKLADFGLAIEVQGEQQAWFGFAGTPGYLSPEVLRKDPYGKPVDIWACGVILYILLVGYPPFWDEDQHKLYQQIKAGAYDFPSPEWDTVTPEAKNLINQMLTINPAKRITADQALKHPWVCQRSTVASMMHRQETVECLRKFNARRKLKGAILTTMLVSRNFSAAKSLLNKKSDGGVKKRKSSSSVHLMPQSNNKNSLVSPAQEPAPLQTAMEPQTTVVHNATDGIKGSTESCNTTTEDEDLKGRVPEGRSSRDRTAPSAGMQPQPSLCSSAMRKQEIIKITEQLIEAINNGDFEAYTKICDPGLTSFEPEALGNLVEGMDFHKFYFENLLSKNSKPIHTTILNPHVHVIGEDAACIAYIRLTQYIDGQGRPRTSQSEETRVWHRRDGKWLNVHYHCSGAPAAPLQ
Sequence of Atypical kinase COQ8A, mitochondrial (Homo sapiens) (Q8NI60 163-647 limits assumed): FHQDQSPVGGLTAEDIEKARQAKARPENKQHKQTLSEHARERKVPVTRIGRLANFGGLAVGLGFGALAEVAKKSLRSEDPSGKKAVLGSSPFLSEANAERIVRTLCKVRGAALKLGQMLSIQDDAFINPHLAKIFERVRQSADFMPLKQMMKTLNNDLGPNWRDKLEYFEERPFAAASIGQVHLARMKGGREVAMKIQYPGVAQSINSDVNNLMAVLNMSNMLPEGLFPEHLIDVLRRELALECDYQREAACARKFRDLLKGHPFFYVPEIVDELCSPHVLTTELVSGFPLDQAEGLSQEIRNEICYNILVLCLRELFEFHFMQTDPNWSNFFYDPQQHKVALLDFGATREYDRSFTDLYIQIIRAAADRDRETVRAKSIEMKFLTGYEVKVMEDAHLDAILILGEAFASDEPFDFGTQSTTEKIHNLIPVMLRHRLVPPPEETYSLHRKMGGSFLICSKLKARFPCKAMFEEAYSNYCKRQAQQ
Sequence of Serine/threonine-protein kinase ICK (Homo sapiens) (Q9UPZ9 whole entry, the tested form may be a part): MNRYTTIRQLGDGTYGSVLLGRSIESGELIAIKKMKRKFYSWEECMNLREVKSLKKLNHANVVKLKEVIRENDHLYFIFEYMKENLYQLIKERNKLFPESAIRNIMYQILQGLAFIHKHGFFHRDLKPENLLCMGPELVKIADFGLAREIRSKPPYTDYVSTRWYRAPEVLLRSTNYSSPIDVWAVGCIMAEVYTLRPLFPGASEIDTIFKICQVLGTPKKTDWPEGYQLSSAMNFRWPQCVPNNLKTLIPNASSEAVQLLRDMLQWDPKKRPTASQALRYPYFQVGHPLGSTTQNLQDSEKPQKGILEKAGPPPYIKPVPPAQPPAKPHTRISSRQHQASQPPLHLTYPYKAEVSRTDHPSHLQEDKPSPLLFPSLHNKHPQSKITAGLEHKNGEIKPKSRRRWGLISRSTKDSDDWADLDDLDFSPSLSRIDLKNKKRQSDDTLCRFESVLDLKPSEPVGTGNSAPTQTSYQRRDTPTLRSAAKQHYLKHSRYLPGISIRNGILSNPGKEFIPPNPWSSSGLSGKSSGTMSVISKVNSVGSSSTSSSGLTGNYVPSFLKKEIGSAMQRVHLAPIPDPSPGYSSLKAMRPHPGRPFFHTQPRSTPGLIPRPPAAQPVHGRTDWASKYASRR
Sequence of Serine/threonine-protein kinase D2 (Homo sapiens) (Q9BZL6 whole entry, the tested form may be a part): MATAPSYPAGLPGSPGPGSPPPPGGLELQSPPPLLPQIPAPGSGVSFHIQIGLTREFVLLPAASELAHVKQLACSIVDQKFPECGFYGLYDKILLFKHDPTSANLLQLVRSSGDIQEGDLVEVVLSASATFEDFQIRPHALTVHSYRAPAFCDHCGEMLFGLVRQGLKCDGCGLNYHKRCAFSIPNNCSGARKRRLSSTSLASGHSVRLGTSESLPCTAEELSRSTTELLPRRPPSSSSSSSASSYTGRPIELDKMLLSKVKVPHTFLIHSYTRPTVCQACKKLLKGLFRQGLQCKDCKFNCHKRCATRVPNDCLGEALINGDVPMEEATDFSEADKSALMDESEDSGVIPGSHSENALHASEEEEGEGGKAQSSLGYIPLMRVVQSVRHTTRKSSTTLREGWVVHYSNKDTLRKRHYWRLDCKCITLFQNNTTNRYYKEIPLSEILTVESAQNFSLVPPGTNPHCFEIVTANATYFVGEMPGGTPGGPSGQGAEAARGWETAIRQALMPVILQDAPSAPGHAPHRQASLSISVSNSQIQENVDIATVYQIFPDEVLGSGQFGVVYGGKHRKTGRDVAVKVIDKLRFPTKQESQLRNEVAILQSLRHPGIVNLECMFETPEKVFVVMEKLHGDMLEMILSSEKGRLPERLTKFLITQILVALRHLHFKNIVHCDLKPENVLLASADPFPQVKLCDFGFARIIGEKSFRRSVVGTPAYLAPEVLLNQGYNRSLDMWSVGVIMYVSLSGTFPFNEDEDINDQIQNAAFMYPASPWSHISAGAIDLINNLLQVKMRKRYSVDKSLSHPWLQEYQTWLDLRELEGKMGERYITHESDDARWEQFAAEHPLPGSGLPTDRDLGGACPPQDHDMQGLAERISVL
Sequence of Ephrin type-A receptor 8 (Homo sapiens) (P29322 whole entry, the tested form may be a part): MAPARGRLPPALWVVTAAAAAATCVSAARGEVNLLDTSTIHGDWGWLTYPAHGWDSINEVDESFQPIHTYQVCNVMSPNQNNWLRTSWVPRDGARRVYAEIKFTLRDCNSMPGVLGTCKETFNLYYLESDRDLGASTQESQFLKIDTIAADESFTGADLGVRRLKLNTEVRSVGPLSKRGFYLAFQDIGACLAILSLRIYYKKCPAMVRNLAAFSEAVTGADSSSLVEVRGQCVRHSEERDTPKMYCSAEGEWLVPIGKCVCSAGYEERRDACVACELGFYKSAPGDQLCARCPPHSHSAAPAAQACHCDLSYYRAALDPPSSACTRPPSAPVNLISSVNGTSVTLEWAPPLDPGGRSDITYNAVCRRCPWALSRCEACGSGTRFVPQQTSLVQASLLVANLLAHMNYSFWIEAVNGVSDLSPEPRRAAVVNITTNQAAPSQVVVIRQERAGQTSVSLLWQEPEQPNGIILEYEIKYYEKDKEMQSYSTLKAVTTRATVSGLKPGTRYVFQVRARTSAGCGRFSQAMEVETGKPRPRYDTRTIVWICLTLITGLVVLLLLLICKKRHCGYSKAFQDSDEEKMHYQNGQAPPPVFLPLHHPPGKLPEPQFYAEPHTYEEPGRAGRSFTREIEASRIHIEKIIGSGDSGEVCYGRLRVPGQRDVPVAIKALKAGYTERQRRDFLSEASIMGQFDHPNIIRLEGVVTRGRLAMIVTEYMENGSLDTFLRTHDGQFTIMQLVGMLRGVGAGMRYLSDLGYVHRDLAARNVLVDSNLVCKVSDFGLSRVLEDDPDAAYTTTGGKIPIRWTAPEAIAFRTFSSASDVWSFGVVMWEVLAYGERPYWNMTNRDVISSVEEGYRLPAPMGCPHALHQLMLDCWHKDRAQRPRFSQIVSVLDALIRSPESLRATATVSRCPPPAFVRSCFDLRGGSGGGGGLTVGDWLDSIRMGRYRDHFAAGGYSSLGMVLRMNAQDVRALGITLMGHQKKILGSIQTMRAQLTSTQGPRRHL
Sequence of Serine/threonine-protein kinase 26 (Homo sapiens) (Q9P289 2-416 limits assumed): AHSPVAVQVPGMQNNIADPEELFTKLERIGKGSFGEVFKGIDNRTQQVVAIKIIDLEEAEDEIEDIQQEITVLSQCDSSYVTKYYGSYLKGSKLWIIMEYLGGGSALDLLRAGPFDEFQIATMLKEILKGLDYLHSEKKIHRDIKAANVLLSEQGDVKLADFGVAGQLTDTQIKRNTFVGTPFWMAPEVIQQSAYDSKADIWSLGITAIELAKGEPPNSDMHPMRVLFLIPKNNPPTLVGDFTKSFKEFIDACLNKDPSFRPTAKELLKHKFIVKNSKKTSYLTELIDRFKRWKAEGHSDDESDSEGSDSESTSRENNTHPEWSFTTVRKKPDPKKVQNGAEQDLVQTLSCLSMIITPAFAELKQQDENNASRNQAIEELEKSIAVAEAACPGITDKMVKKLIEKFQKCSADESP

Q: With `O=C(Nc1cccc([C@@H]2CN(c3ncnc4[nH]ccc34)CCN2CCO)c1)Nc1c(F)cccc1N1CCCC1` as the molecule, how does the inhibition [1] read?
A: 100%

Q: And the inhibition [2]?
A: 100%

Q: And the inhibition [3]?
A: 100%

Q: What about the inhibition [4] of the same molecule?
A: 100%

Q: And the inhibition [5]?
A: 97%

Q: And the inhibition [6]?
A: 88%

Q: And the inhibition [7]?
A: 85%

Q: And the inhibition [8]?
A: 93%

Q: What about the inhibition [9] of the same molecule?
A: 91%

Q: What about the inhibition [10] of the same molecule?
A: 67%

Q: And the inhibition [11]?
A: 75%

Q: What about the inhibition [12] of the same molecule?
A: 8.7%

Q: And the inhibition [13]?
A: 80%

Q: And the inhibition [14]?
A: 28%

Q: And the Papp A→B at 2 h, 5 µM [15]?
A: 4 ×10⁻⁶ cm/s

Q: What about the inhibition [16] of the same molecule?
A: 54%

Q: Which inhibition [17] does the source give for `O=C(Nc1cccc([C@H]2CCCN(c3ncnc4[nH]ccc34)C2)c1)Nc1ccccc1N1CCCC1` here?
A: 85%

Q: And the inhibition [18]?
A: 66%

Q: What about the inhibition [19] of the same molecule?
A: 100%

Q: And the inhibition [20]?
A: 51%

Q: What about the inhibition [21] of the same molecule?
A: 100%

Q: What about the inhibition [22] of the same molecule?
A: 72%

Q: What about the inhibition [23] of the same molecule?
A: 98%

Q: And the inhibition [24]?
A: 51%

Q: What about the inhibition [25] of the same molecule?
A: 94%

Q: And the inhibition [26]?
A: 40%

Q: What about the inhibition [27] of the same molecule?
A: 38%
